# US9657079B2, “Truncated GLP-1 derivatives and their therapeutical use” (Novo Nordisk A/S, priority 2007, dated 2017)
# Where a SMILES comes first, the peptide text is derived from it. [ ]: non-standard residue; d: D form. Aib = CC(C)(N)C(=O)O
# Assays:
# [1] = target: T1, isolated N-terminal extracellular domain of the GLP-1R receptor (nGLP-1R) (Homo sapiens, UniProt P43220); assay: Displacement of 125I-Exendin-4(9-39) from nGLP-1R (SPA); type: binding; conditions: SPA beads, read-out: affinity to nGLP-1R (IC50)
# T1 construct: isolated N-terminal extracellular domain of the GLP-1R receptor (nGLP-1R); made in house
# T1 sequence (P43220 24-139 limits assumed): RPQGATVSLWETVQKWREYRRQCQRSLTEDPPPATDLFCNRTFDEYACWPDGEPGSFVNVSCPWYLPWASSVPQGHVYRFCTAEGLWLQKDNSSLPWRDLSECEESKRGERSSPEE
# Method: The protein is then biotinylated and immobilized, preferably on streptavidin-coated SPA beads. The nGLP1R in a suitable buffer such as 0.1M NaHCO3 may be biotinylated using 75 μg BNHS (Sigma H1759) to 1 mg protein. The biotinylated nGLP1R is subsequently preferably dialyzed against PBS. […] The plates are incubated on a shaker, preferably at RT for 3 hours. The SPA particles may be spun down by centrifugation, e.g. for 10 min at 1500 rpm, and the plates are counted, e.g. in a TopCount-NXT (PerkinElmer).
# The nGLP1R in 0.1M NaHCO3 was biotinylated using 75 μg BNHS (Sigma H1759) to 1 mg protein. The biotinylated nGLP1R was subsequently dialyzed against PBS. All reagents and derivatives were diluted in PBS with 0.05% v/v Tween 20. […] The plates were incubated on a shaker at RT for 3 hours. The SPA particles were spun down by centrifugation for 10 min at 1500 rpm and the plates were counted in a TopCount-NXT (PerkinElmer).
# human GLP-1 receptor [2] = target: T2, human GLP-1 receptor (Homo sapiens, UniProt P43220); assay: Stimulation of cAMP formation, plasma membranes from BHK467-12A (tk-ts13) cells, AlphaScreen cAMP kit; type: biochemical; conditions: membranes of BHK467-12A (tk-ts13) expressing the human GLP-1 receptor; read-out: potency (EC50), cAMP formation
# T2 construct: expressed in transfected cells; purified plasma membranes
# T2 sequence (P43220 24-463): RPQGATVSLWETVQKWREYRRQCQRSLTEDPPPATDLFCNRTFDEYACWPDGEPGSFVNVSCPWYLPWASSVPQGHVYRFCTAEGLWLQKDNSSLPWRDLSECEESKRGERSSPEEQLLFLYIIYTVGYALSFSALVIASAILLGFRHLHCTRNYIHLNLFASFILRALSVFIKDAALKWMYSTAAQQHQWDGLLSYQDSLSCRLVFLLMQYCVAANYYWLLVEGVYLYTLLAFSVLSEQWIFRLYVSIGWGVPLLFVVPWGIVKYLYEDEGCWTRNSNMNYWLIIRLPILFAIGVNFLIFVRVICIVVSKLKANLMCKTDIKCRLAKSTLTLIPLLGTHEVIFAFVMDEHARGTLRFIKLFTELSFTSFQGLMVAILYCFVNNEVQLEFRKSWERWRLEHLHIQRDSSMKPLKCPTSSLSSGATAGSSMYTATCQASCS
# Method: In particular embodiments (i) baby hamster kidney (BHK) cells expressing the cloned human GLP-1 receptor are used, preferably BHK-467-12A, more preferably BHK-467-12A (tk-ts13); (ii) the cells are grown in DMEM media with the addition of 100 IU/mL penicillin, 100 μg/mL streptomycin, 5% fetal calf serum and 0.5 mg/mL Geneticin G-418 (Life Technologies), preferably at 5% CO2; (iii) the cells, preferably at approximately 80% confluence, are washed twice in phosphate buffered saline; (iv) the cells are harvested with an aqueous solution of tetrasodium salt of ethylenediaminetetraacetic acid, such as Versene; (v) plasma membranes are prepared from the cells by homogenisation, preferably in buffer 1; the homogenate is centrifuged, e.g. at 48,000×g for 15 min at 4° C.; and/or (vii) the pellet is suspended by homogenization in buffer 2. Steps (vi) and (vii) are preferably repeated, e.g. one or two times more.
# The functional receptor assay may be carried out as described in Example 21 by measuring cyclic AMP (cAMP) as a response to stimulation by the insulinotropic agent. cAMP formed is preferably quantified by the AlphaScreen™ cAMP Kit (Perkin Elmer Life Sciences). Incubations may be carried out in half-area 96-well microtiter plates in a total volume of 50 μL buffer 3 (50 mM Tris-HCI, 5 mM HEPES, 10 mM MgCl2, pH 7.4) and with the following additions: 1 mM ATP, 1 μM GTP, 0.5 mM 3-isobutyl-1-methylxanthine (IBMX), 0.01% Tween-20, 0.1% BSA, 6 μg membrane preparation, 15 μg/mL acceptor beads, 20 μg/mL donor beads preincubated with 6 nM biotinyl-cAMP. Analogues or derivatives to be tested for agonist activity are preferably dissolved and diluted in buffer 3. GTP is freshly prepared for each experiment. […]
# For comparison, the potency of truncated natural, human GLP-1(7-33) was also determined.
# Purified plasma membranes from a stable transfected cell line, BHK467-12A (tk-ts13), expressing the human GLP-1 receptor was stimulated with GLP-1 compound in question, and the potency of cAMP production was measured using the AlphaScreen™ cAMP Assay Kit from Perkin Elmer Life Sciences. […]
# Cells at approximate 80% confluence are washed 2× with PBS (Phosphate Buffered Saline) and harvested with Versene (aqueous solution of the tetrasodium salt of ethylenediaminetetraacetic acid), centrifuged 5 min at 1000 rpm and the supernatant removed. […] Suspension in Buffer 2, homogenization and centrifugation is repeated once and the membranes are resuspended in Buffer 2 and ready for further analysis or stored at −80° C.
# The functional receptor assay was carried out by measuring the peptide induced cAMP production by The AlphaScreen Technology. […] Formed cAMP is counted and measured at a Alpha Fusion Microplate Analyzer. […]
# human GLP-1 receptor [3] = target: T2, human GLP-1 receptor; assay: Displacement of 125I-GLP-1 from the GLP-1 receptor, BHK tk-ts13 membranes (SPA); conditions: displacement of 125I-GLP-1, BHK tk-ts13 membranes, read-out: IC50, binding affinity to the GLP-1 receptor
# Text: In a second aspect, the GLP-1 analogue or derivative thereof (“GLP-1 compound”) has a high affinity to the GLP-1 receptor. The affinity to the GLP-1 receptor may be determined as described in Example 23, i.e. by way of displacement of ^125I-GLP-1 from the receptor. BHK cells may be used for membrane preparation, preferably strain tk-ts13. The membranes may be purified, preferably as described in Example 23, A preferred binding assay method is the SPA assay of Example 23.
# The binding affinity of a number of GLP-1 compounds of the invention (compounds of Examples 1-7, and 9-18) to the human GLP-1 receptor was measured by way of their ability to displace ^125I-GLP-1 from the receptor.
# Species (in vitro): Hamster
# Biological End Point: Receptor Binding
# The cells (approx. 80% confluence) were washed twice in PBS and harvested (PBS+EDTA or Versene), following which they were separated by centrifugation at 1000 rpm for 5 min. The cells/cell pellet must be kept on ice to the extent possible in the subsequent steps. The cell pellet was homogenised with Ultrathurrax for 20-30 seconds in a suitable amount of Buffer 1 (depending on the amount of cells, but e.g. 10 ml). The homogenate as centrifuged at 20000 rpm for 15 minutes. The pellet was resuspended (homogenised) in 10 ml Buffer 2 and re-centrifuged. This step was repeated once more. The resulting pellet was resuspended in Buffer 2, and the protein concentration was determined. The membranes were stored at −80° C.
# Buffer 1: 20 mM Na-HEPES+10 mM EDTA, pH 7.4
# Buffer 2: 20 mM Na-HEPES+0.1 mM EDTA, pH 7.4
# Test compounds/peptides, membranes, SPA-particles and [^125I] are diluted in assay buffer. 25 ul (micro liter) of test compounds/peptides are added to Optiplate. Buffer is added (50 ul). Add 5-10 ug protein/sample (50 ul) corresponding to 0.1-0.2 mg protein/ml (to be preferably optimised for each membrane preparation). Add SPA-particles (Wheatgerm agglutinin SPA beads) RPNQ 0001) 0.5 mg/well (50 ul). Start the incubation with [I^125]-GLP-1 (final concentration 0.05 nM corresponding to 49.880 DPM, 25 ul). The plates are sealed with PlateSealer. Incubate for 120 minutes at 30° C. while shaking. The plates are centrifuged (1500 rpm, 10 min) and counted in Topcounter.
# Assay buffer: 50 mM HEPES
Structure (SMILES),IC50 [1] [nM],EC50 (human GLP-1 receptor [2]) [nM],IC50 (human GLP-1 receptor [3]) [nM]
"CC[C@H](C)[C@H](NC(=O)[C@H](Cc1ccccc1)NC(=O)[C@H](CCC(=O)O)NC(=O)[C@H](CCCNC(=N)N)NC(=O)[C@@H](NC(=O)[C@H](C)NC(=O)[C@H](CCC(N)=O)NC(=O)[C@H](CCC(=O)O)NC(=O)[C@H](CCC(=O)O)NC(=O)[C@H](CC(C)C)NC(=O)[C@H](Cc1ccc(O)cc1)NC(=O)[C@H](CO)NC(=O)[C@H](CO)NC(=O)[C@@H](NC(=O)[C@H](CC(=O)O)NC(=O)[C@H](CO)NC(=O)[C@@H](NC(=O)[C@H](Cc1ccccc1)NC(=O)[C@@H](NC(=O)CNC(=O)[C@H](CCC(=O)O)NC(=O)[C@H](C)NC(=O)[C@@H](N)Cc1c[nH]cn1)[C@@H](C)O)[C@@H](C)O)C(C)C)C(C)C)C(=O)N[C@@H](C)C(=O)N[C@@H](Cc1c[nH]c2ccccc12)C(=O)N[C@@H](CC(C)C)C(=O)N[C@H](C(N)=O)C(C)C [Example 4, [Glu22, Val25, Arg26] GLP-1 (7-33)amide] (H-HAEGTFTSDVSSYLEEQAVREFIAWLV-NH2)",200 to 1500,< 0.3,0.24 to 44
"CC[C@H](C)[C@H](NC(=O)[C@H](Cc1ccccc1)NC(=O)[C@H](CCC(=O)O)NC(=O)[C@H](CCCNC(=N)N)NC(=O)[C@@H](NC(=O)[C@H](C)NC(=O)[C@H](CCC(N)=O)NC(=O)[C@H](CCC(=O)O)NC(=O)[C@H](CCC(=O)O)NC(=O)[C@H](CCCCN)NC(=O)[C@H](Cc1ccc(O)cc1)NC(=O)[C@H](CO)NC(=O)[C@H](CO)NC(=O)[C@@H](NC(=O)[C@H](CC(=O)O)NC(=O)[C@H](CO)NC(=O)[C@@H](NC(=O)[C@H](Cc1ccccc1)NC(=O)[C@@H](NC(=O)CNC(=O)[C@H](CCC(=O)O)NC(=O)C(C)(C)NC(=O)[C@@H](N)Cc1c[nH]cn1)[C@@H](C)O)[C@@H](C)O)C(C)C)C(C)C)C(=O)N[C@@H](CCC(=O)O)C(=O)N[C@@H](Cc1c[nH]c2ccccc12)C(=O)N[C@@H](CC(C)C)C(=O)N[C@H](C(N)=O)C(C)C [Example 5, [Aib8,Lys20,Glu22,Val25,Arg26,Glu30] GLP-1 (7-33) Amide] (H-H[Aib]EGTFTSDVSSYKEEQAVREFIEWLV-NH2)",200 to 1500,< 0.3,0.24 to 44
"CC[C@H](C)[C@H](NC(=O)[C@H](Cc1ccccc1)NC(=O)[C@H](CCC(=O)O)NC(=O)[C@H](CCCNC(=N)N)NC(=O)[C@H](C)NC(=O)[C@H](C)NC(=O)[C@H](CCC(N)=O)NC(=O)[C@H](CCC(=O)O)NC(=O)[C@H](CCC(=O)O)NC(=O)[C@H](CC(C)C)NC(=O)[C@H](Cc1ccc(O)cc1)NC(=O)[C@H](CO)NC(=O)[C@H](CO)NC(=O)[C@@H](NC(=O)[C@H](CC(=O)O)NC(=O)[C@H](CO)NC(=O)[C@@H](NC(=O)[C@H](Cc1ccccc1)NC(=O)[C@@H](NC(=O)CNC(=O)[C@H](CCC(=O)O)NC(=O)[C@H](C)NC(=O)[C@@H](N)Cc1c[nH]cn1)[C@@H](C)O)[C@@H](C)O)C(C)C)C(=O)N[C@@H](C)C(=O)N[C@@H](Cc1c[nH]c2ccccc12)C(=O)N[C@@H](CC(C)C)C(=O)N[C@H](C(=O)O)C(C)C [Example 7, [Glu22, Arg26]GLP-1(7-33)peptide] (H-HAEGTFTSDVSSYLEEQAAREFIAWLV-OH)",200 to 1500,< 0.3,0.24 to 44
"CC[C@H](C)[C@H](NC(=O)[C@H](Cc1ccccc1)NC(=O)[C@H](CCC(=O)O)NC(=O)[C@H](CCCNC(=N)N)NC(=O)[C@H](C)NC(=O)[C@H](C)NC(=O)[C@H](CCC(N)=O)NC(=O)[C@H](CCC(=O)O)NC(=O)[C@H](CCC(=O)O)NC(=O)[C@H](CC(C)C)NC(=O)[C@H](Cc1ccc(O)cc1)NC(=O)[C@H](CO)NC(=O)[C@H](CO)NC(=O)[C@@H](NC(=O)[C@H](CC(=O)O)NC(=O)[C@H](CO)NC(=O)[C@@H](NC(=O)[C@H](Cc1ccccc1)NC(=O)[C@@H](NC(=O)CNC(=O)[C@H](CCC(=O)O)NC(=O)[C@H](C)NC(=O)[C@@H](N)Cc1c[nH]cn1)[C@@H](C)O)[C@@H](C)O)C(C)C)C(=O)N[C@@H](C)C(=O)N[C@@H](Cc1c[nH]c2ccccc12)C(=O)N[C@@H](CC(C)C)C(=O)N[C@H](C(N)=O)C(C)C [Example 1, [Glu22,Arg26]GLP-1 (7-33) Amide] (H-HAEGTFTSDVSSYLEEQAAREFIAWLV-NH2)",200 to 1500,< 0.3,0.24 to 44
